Experimental data taken from article PMC1764755, “Human antimicrobial peptide LL-37 is present in atherosclerotic plaques and induces death of vascular smooth muscle cells: a laboratory study” (BMC Cardiovascular Disorders, 2006).

Experiments:
Format in all cases: cell-based
[1] = test system: rat aorta smooth muscle cells; experiment: Microscopy of cultured cells (Nomarski, DAPI, FITC-annexin V); details: for morphological changes: serum free DMEM
Experimental: Rat aorta smooth muscle cells were grown on methanol-cleansed coverslips in 6-well plates and incubated for 2 or 5 h in serum free DMEM with/without LL-37 (10 or 30 μg/ml) or camptothecin (5 μg/ml, Sigma-Aldrich). After culture, the coverslips were washed with ice-cold PBS containing 1 mM Ca^2+ and the cells were then stained at room temperature for 20 min with FITC-annexin V (20 μg/ml, Roche Molecular Biochemicals, Mannheim, Germany) and 4'6-diamino-2-phenyliondole dihydrochloride (DAPI) nucleic acid stain (100 nM, Molecular probes, Eugene, OR, USA). Thereafter, the cells were fixed with 1 % paraformaldehyde (Becton Dickinson, Bedford MA, U.S.A) in ice-cold PBS containing 1 mM Ca^2+. Fixation was initiated on ice for 15 min and continued at room temperature for 45 min. Cover slips were then mounted using ProLong AntiFade Reagent (Molecular Probes). Visual inspection and recording of images was performed using a Nikon Eclipse TE300 inverted fluorescence microscope equipped with a Hamamatsu C4742-95 cooled CCD camera, using a Plan Apochromat 60 × objective.

[2] = test system: caspase-3 activity in rat aorta smooth muscle cells; experiment: Caspase-3 activity (fluorometric immunosorbent enzyme assay, FIENA); details: LL-37 30 μg/ml, 1, 3 and 7 h, corrected for intact cells, n = 6, P < 0.05
Experimental: Confluent rat aorta smooth muscle cells cultured on 24-well plates were incubated for 1, 3 or 7 h in serum free DMEM in the absence (control) or presence of LL-37 (10 or 30 μg/ml). The caspase-3 activity was measured by using a fluorometric immunosorbent enzyme assay (FIENA, Roche Molecular Biochemicals) according to the manufacturer's instructions. Briefly, the caspase-3 from cellular lysates was captured by immobilized monoclonal anti-caspase-3 antibodies followed by addition of a substrate that is cleaved by caspase-3 generating a fluorescent compound. Fluorescence was then measured at 400 nm excitation and 505 nm emission. […] The caspase-3 activity values were therefore corrected in order to correspond to the fraction of intact cells using the formula […]
Where VIC is the caspase-3 activity of intact cells, VC is the caspase-3 activity of the sample, VL is the LDH activity of the sample and VLT is the total LDH activity of lysed cells. The caspase-3 activity is expressed as % of untreated controls.

[3] = test system: human aortic smooth muscle cells; experiment: Internucleosomal DNA fragmentation (Cell Death Detection ELISA); details: LL-37 30 μg/ml, 16 h, n = 7, P < 0.05
Experimental: (§1) Confluent rat or human aorta smooth muscle cells cultured on 24-well plates were incubated in serum free DMEM for 16 h in the absence (control) or presence of LL-37 (10 and 30 μg/ml). Internucleosomal DNA fragmentation was measured using a Cell Death Detection ELISA Kit (Roche Molecular Biochemicals) according to the manufacturer's instructions. In short, the cells were lysed in the culture wells and the DNA fragments in the lysate were bound to a microtiter plate coated with monoclonal anti-histone antibodies. The bound DNA fragments were then detected by peroxidase-conjugated monoclonal anti-DNA antibodies and 2,2'-azino-di- [3-ethylbenzthiazoline sulfonate]. Optical density was measured at 415 nm and is expressed as % of untreated controls.

[4] = test system: rat aorta smooth muscle cells; experiment: as above; details: 16 h, n = 7, P < 0.05
Experimental: as §1

[5] = test system: rat aorta smooth muscle cells; experiment: LDH release assay; details: LL-37 30 μg/ml, 1, 3 and 7 h, n = 7, P < 0.05
Experimental: Confluent rat aorta smooth muscle cells cultured on 24-well plates were incubated for 1, 3, or 7 h in serum free DMEM in the absence (control) or presence of LL-37 (10 or 30 μg/ml). The lactate dehydrogenase (LDH) activity released into the medium was measured by using the in vitro toxicology assay kit (Tox-7, Sigma-Aldrich) according to the manufacturer's instructions. In short, the medium was centrifuged at 2000 × g for 4 min. The LDH in the supernatants converted a tetrazolium dye, which was measured spectrophotometrically at 490 nm. The LDH activity is expressed as % of total LDH activity of lysed cells.

[6] = test system: rat aorta smooth muscle cells; experiment: Flow cytometry, FITC-annexin V / propidium iodide; details: LL-37 30 μg/ml
Experimental: Rat aorta smooth muscle cells were harvested from culture plates using trypsin/EDTA and washed in PBS once followed by a 2-h incubation in bicarbonate free MEM at 37°C using gentle end-over-end rotation. […] Staining was performed for 20 min on ice with FITC-annexin V (30 μg/ml) and propidium iodide (30 μg/ml, BD Pharmingen, San Diego, CA, USA) in calcium-containing PBS. Fluorescence-activated cell sorter (FACS) analysis was performed immediately (Becton Dickinson FACS Calibur instrument). 10,000 cells/sample were counted, and results were evaluated by using the Cell Quest software (Becton Dickinson). The same protocol was used for staining of human neutrophils incubated with LL-37 (30 μg/ml) for 30 or 120 min.

human neutrophils = experiment: Flow cytometry, FITC-annexin V / propidium iodide; details: LL-37 30 μg/ml, 30 and 120 minutes, not shown
Experimental: Human neutrophils were isolated from heparinized blood from healthy donors using the Polymorph isolation kit (Nycomed Pharma AS Diagnostics, Oslo, Norway). Following the manufacturer's instructions, whole blood was layered carefully on neutrophil isolation medium and centrifuged at 400 × g for 30 min at room temperature. After centrifugation the following fractions were apparent: mononuclear cells, neutrophils and erythrocyte pellet. The polymorphonuclear leukocytes layer was suspended in PBS, followed by 10 min centrifugation at 350 × g; residual erythrocytes were removed by hypotonic lysis. After two washes in PBS with centrifugation for 5 min at 250 × g, the pellet was suspended in Minimum essential medium (MEM) and neutrophils were counted using a hemocytometer. The concentration of cells was adjusted to 10^7 cells/ml.
Rat aorta smooth muscle cells were harvested from culture plates using trypsin/EDTA and washed in PBS once followed by a 2-h incubation in bicarbonate free MEM at 37°C using gentle end-over-end rotation. […] Fluorescence-activated cell sorter (FACS) analysis was performed immediately (Becton Dickinson FACS Calibur instrument). 10,000 cells/sample were counted, and results were evaluated by using the Cell Quest software (Becton Dickinson). […]

## CC[C@H](C)[C@H](NC(=O)[C@H](CCCCN)NC(=O)[C@H](CCC(=O)O)NC(=O)[C@H](CCCCN)NC(=O)[C@H](CO)NC(=O)[C@H](CCCCN)NC(=O)[C@H](CCCNC(=N)N)NC(=O)[C@H](Cc1ccccc1)NC(=O)[C@H](Cc1ccccc1)NC(=O)[C@H](CC(=O)O)NC(=O)CNC(=O)[C@H](CC(C)C)NC(=O)[C@@H](N)CC(C)C)C(=O)NCC(=O)N[C@@H](CCCCN)C(=O)N[C@@H](CCC(=O)O)C(=O)N[C@@H](Cc1ccccc1)C(=O)N[C@@H](CCCCN)C(=O)N[C@@H](CCCNC(=N)N)C(=O)N[C@H](C(=O)N[C@H](C(=O)N[C@@H](CCC(N)=O)C(=O)N[C@@H](CCCNC(=N)N)C(=O)N[C@H](C(=O)N[C@@H](CCCCN)C(=O)N[C@@H](CC(=O)O)C(=O)N[C@@H](Cc1ccccc1)C(=O)N[C@@H](CC(C)C)C(=O)N[C@@H](CCCNC(=N)N)C(=O)N[C@@H](CC(N)=O)C(=O)N[C@@H](CC(C)C)C(=O)N[C@H](C(=O)N1CCC[C@H]1C(=O)N[C@@H](CCCNC(=N)N)C(=O)N[C@H](C(=O)N[C@@H](CCC(=O)O)C(=O)N[C@@H](CO)C(=O)O)[C@@H](C)O)C(C)C)[C@@H](C)CC)C(C)C)[C@@H](C)CC [LL-37]
[1]; LL-37 10 μg/ml, not shown
  morphological changes: only small and inconsistent morphological changes
[1]; LL-37 30 μg/ml, 2 or 5 h
  FITC-annexin V binding of plasma membrane (microscopy): bound FITC-annexin V
  nuclear appearance (DAPI stain): nuclei of most cells appeared smaller with fragmented chromatin
  morphological changes: progressive cell shrinkage and a rough appearance of the cell membrane
[2]
  caspase-3 activity versus untreated controls: significant increase
[3]
  DNA fragmentation compared to controls: statistically significant DNA fragmentation
[4]; LL-37 10 μg/ml
  DNA fragmentation compared to controls: statistically significant DNA fragmentation
[4]; LL-37 30 μg/ml
  DNA fragmentation compared to controls: statistically significant DNA fragmentation
[5]
  release of LDH into medium versus control: significantly increased
[6]
  increase in the propidium iodide fluorescence signal of the necrotic cells: about 1000 fold
[6]; 10 to 180 minutes
  increase in FITC-annexin V fluorescence: 15 fold
[6]; 10 minutes
  leftmost peak of FITC-annexin V fluorescence histogram: about 2 fluorescence units
[6]; 180 minutes
  leftmost peak of FITC-annexin V fluorescence histogram: ~30 units
[6]; within 10 minutes
  increase in propidium iodide staining of the viable cells: 10 fold
Human neutrophils
  staining with propidium iodide and FITC-annexin V: weak staining

## CC[C@@]1(O)C(=O)OCc2c1cc1n(c2=O)Cc2cc3ccccc3nc2-1 [camptothecin]
[1]; camptothecin 5 μg/ml, not shown
  cellular changes compared with those induced by LL-37 (30 μg/ml): similar
